T1: purified recombinant rat CSPα (Rattus norvegicus, UniProt P60905)
T1 construct: gene Dnajc5; purified recombinant soluble CSPα
T1 sequence (P60905 1-198): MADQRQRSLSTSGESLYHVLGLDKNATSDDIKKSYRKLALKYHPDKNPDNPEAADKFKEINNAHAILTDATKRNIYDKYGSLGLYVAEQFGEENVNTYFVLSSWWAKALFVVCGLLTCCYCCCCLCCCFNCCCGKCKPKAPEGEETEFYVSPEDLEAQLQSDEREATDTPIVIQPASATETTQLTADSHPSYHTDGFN

T2: c-myc-CSPα (Rattus norvegicus, UniProt P60905)
T2 construct: gene Dnajc5; full-length CSPα1-198, c-myc tag kept; transient expression in CAD mouse neuroblastoma cells; palmitoylated monomer ~34 kDa, dimer ~72 kDa
T2 sequence (P60905 1-198): T1 sequence (P60905 1-198)

B1: c-myc tagged rat CSPα_(1–198) (cysteine string protein) (natural protein, UniProt P60905 1-198, looked up)
chain: T1 sequence (P60905 1-198)
modifications: both unmodified and palmitoylated (extensive fatty acylation) species seen
notes: cysteine string protein alpha (CSPα), rat, residues 1-198; also called c-myc-CSPα; source: CAD mouse neuroblastoma cells, transiently transfected, in lysate

Tests used:
[1] = target: T1, purified recombinant rat CSPα; experiment: SDS-resistant dimerization of purified protein, SDS-PAGE; assay type: binding; settings: 24 h incubation; concentration series
[2] = target: T2, c-myc-CSPα; experiment: CSPα dimer in transfected CAD cells, anti-myc Western blot; assay type: cell-based; settings: 24 h treatment of intact cells, cysteine string region
[3] = target: the molecule itself; experiment: SDS-resistant dimer on SDS-PAGE with Western blot; lysates of transiently transfected CAD cells, control or treated 24 h with quercetin (up to 200 µM), EGCG or other agents; 30-40 µg protein in SDS sample buffer at 37°C or 80°C; dimer at ∼72 kDa

Row | Molecule | CSPα dimer formation [1] | fold CSPα dimer vs control at 100 μM [2] | fold dimer with 100 µM quercetin at 24 hrs over control [3]
1 | O=c1c(O)c(-c2ccc(O)c(O)c2)oc2cc(O)cc(O)c12 [quercetin, 3,3′,4′,5,7-pentapentahydroxyflavone] | quercetin triggered dimerization of recombinant CSPα in a concentration dependent manner | 4 fold | 
2 | B1 |  |  | 4 fold
